PMC10252837, “A Novel Time-Resolved Fluorescence Resonance Energy Transfer Assay for the Discovery of Small-Molecule Inhibitors of HIV-1 Tat-Regulated Transcription” (International Journal of Molecular Sciences, 2023)
Read-outs that look alike come from different tables or passages of the source.

Columns and labels:
[1] = tested on: Tat activity (Tat-induced viral transcription); assay: microbe, parasite or virus in culture; type: cell-based, HIV-1; details: for IC50: read-out: IC50 of Tat Activity
Description: (§1) (A) (Upper panel) Doxycycline (Dox)-inducible Tat-expressing bl-DTR cells cultured in 96-well plates treated with two-fold serial dilutions of each compound in the presence of Dox (50 ng/mL). At 24 h after treatment, the activity of firefly luciferase (F-Luc), indicating Tat activity, was determined as described in the Materials and Methods section. (Bottom panel) TZM-bl cells were treated with two-fold serial dilutions of the indicated compound and then infected with the HIV-1NL4-3 strain at a multiplicity of infection (MOI) of 1. At 24 h after infection, the viral infectivity and cell viability were determined as described in the Materials and Methods section. […] (B) 2 × 10^5 TZM-bl cells growing in 6-well plates were infected with HIV-1 (MOI = 1), transfected with a Tat-expressing plasmid (2 μg) or treated with PMA ([…]) upon indicated compounds at indicated concentrations, respectively. At 24 h after treatment, LTR promoter activity was determined via a Bright-Glo Luciferase Assay Kit. The relative activities are represented as the mean ± SD (n = 3) compared with the DMSO vesicle. (C) The biotinylated TAR RNA (2 nM) was incubated with ARM peptide (100 nM) in the presence of increasing amounts of the hit compound and separated on a 3–12% native polyacrylamide gel. The mobility of biotinylated TAR RNA was detected by chemiluminescence.
The inhibitory effect of hit compounds on Tat-mediated transcription was determined using doxycycline (Dox)-inducible Tat-expressing TZM-bl cells that express the LTR-driven firefly luciferase (F-Luc) gene under the control of Tat upon Dox treatment, as described previously but with minor modifications. In brief, 1 × 10^4 of the cells were cultured in 96-well plates, treated with compounds at a concentration of 10 µM (in the second round of screening), and then treated with Dox (final concentration: 50 ng/mL). After 24 h, the inhibitory effect of the hit compounds on Tat activity was determined by measuring F-Luc activity using a Bright-Glo Luciferase Assay Kit (Promega, Madison, WI, USA). For the dose–response assay, cells cultured in 100 μL medium were treated with 50 μL of 1:2 serially diluted compounds at concentrations ranging from 0 to 12.5 µM and then treated with 50 μL of Dox (final concentration: 50 ng/mL). At 24 h post-treatment, the F-Luc activity was determined as described above. All luminescence assays were carried out in a SpectraMax Paradigm Microplate Reader (Molecular Devices, San Jose, CA, USA), and the data were expressed as a relative percentage (%) compared to the DMSO control (vehicle) in the presence of Dox. The experiments were performed in triplicate.

HIV-1NL4-3 = assay: HIV-1 infectivity in TZM-bl cells (LTR-driven F-Luc); type: cell-based; details: for IC50: read-out: IC50 of Infectivity
Description: as §1
(§2) To determine the inhibitory effect of hit compounds on HIV-1 infection, we used TZM-bl cells (also referred to as JC53BL-13), which express HIV-1 receptors and contain the LTR-driven F-Luc gene controlled by HIV-1 infection, as described previously but with some minor modifications. Briefly, 1 × 10^4 TZM-bl cells cultured on 96-well plates were treated in triplicate wells with 1:2 serially diluted compounds at concentrations ranging from 0 to 12.5 µM. Subsequently, the cells were infected with HIV-1NL4-3 virus obtained from the transfection of 293T cells at a multiplicity of infection (MOI) of 1. At 24 h after infection, the inhibitory effect of the hit compounds on infectivity was determined using the Bright-Glo Luciferase Assay Kit (Promega). The dose–response data are expressed as a relative percentage compared to the DMSO control (vehicle). The inhibitory effects of the hit compounds on HIV-1 replication were determined as previously described. Briefly, 4 × 10^5 PBMCs pre-activated with phytohemagglutinin M (PHA-M) were washed with fresh media and then infected with HIV-1NL4-3 or HIV-1AD8 at an MOI of 0.1 by spinoculation for 2 h. After infection, the cells were treated with hit compounds at the indicated concentrations at 3–5 days after treatment, and the inhibitory effect of hit compounds on viral replication was determined by the titration of virions from the cell supernatant using a p24 […]™ Assay Kit (PerkinElmer) according to the manufacturer’s instructions. Cell viability was determined using resazurin-based PrestoBlue™ cell viability reagent (Thermo Fisher Scientific, Waltham, MA, USA) according to the manufacturer’s instructions. The data are presented as relative percentages compared to the DMSO control (vehicle). The experiments were performed in triplicate.

TAR RNA = assay: RNA gel mobility shift assay (biotinylated TAR RNA and ARM peptide); type: binding, HIV-1; details: 2 nM biotinylated TAR RNA, 100 nM ARM peptide
Description: To determine the inhibitory effect of hit compounds on the Tat (ARM)-TAR RNA interaction, a gel shift assay was carried out using the LightShift Chemiluminescent RNA EMSA Kit (Thermo Scientific) according to the manufacturer’s instructions, but with minor modifications suitable for our experiment. Briefly, 2 nM of 5′-biotinylated TAR RNA (nt 31) and 100 nM of ARM peptide were incubated with increasing amounts of hit compounds in the 1× REMSA binding buffer (10 mM HEPES pH 7.5, 10 mM MgCl2, 5 mM KCl, 1 mM DTT, and v/v 5 % glycerol) supplemented with 8 units/reaction of RNase OUT (Invitrogen) (final: 20 µL) at 20 °C for 20 min. Subsequently, the reaction was separated on a 3–12% native gradient PAGE gel. The RNA was then transferred to a nylon membrane to detect the mobility-shifted biotinylated TAR RNA using StAV-horseradish peroxidase conjugate. Chemiluminescence was detected using a GBox Chemi chemi-luminometer (Syngene, Fredrick, MD, USA).

HIV-1NL4-3 (X4-tropic) = assay: HIV-1 replication assay in PBMCs (p24), HIV-1NL4-3; type: cell-based; details: PHA-preactivated PBMCs, MOI 0.1, 72 h; 460-G06 at 12.5-100 nM
Description: (§3) Figure 6 Phytohemagglutinin-preactivated peripheral blood mononuclear cells were infected with HIV-1NL4-3 (A) or HIV-1AD8 (B) at an MOI of 0.1 for 2 h and then treated with compounds at indicated concentrations for 72 h. […] The data are expressed as the mean ± SD (n = 3). * p < 0.05 indicates a comparison with the cells treated with DMSO (vehicle). ARVs, anti-retroviral drugs; EFV, efavirenz; DOL, dolutegravir; AZT, azidothymidine.
(§4) The experiments were performed in triplicate.

HIV-1AD8 (R5-tropic) = assay: HIV-1 replication assay in PBMCs (p24), HIV-1AD8; type: cell-based; details: PHA-preactivated PBMCs, MOI 0.1, 72 h; 460-G06 at 12.5-100 nM
Description: as §3, §4

TZM-bl cells = assay: in vitro; details: TZM-bl cells
Description: as §1
as §2, with “Subsequently, the cells were infected with HIV-1NL4-3 virus obtained from the transfection of 293T cells at a multiplicity of infection (MOI) of 1.” left out, “Briefly, 4 × 10^5 PBMCs pre-activated with phytohemagglutinin M (PHA-M) were washed with fresh media and then infected with HIV-1NL4-3 or HIV-1AD8 at an MOI of 0.1 by spinoculation for 2 h.” left out, “The data are presented as relative percentages compared to the DMSO control (vehicle). The experiments were performed in triplicate.” left out

[2] = tested on: Tat (ARM)-TAR RNA interaction; details: 10-fold excess competitor, 50 nM analytes
Description: To test whether our assay is applicable for screening specific inhibitors of the Tat-TAR RNA interaction, inhibition assays were performed with known inhibitors of the Tat-TAR RNA interaction. […] A dose–response competition assay was conducted at inhibitor concentrations of 0–100 μM to determine their inhibitory curves in our assay. […] Additionally, a dose-responsive competition assay using RNA fragments was performed to validate the specificity of the assay.
Data are expressed as the mean ± SD (n = 3) compared to a control lacking an RNA competitor.
The indicated concentrations of ARM and Cy5-TAR RNA fragments were incubated in 20 μL of 1× LANCE ultra assay buffer in 384-well microtiter plates with or without inhibitor (competitor) for 30 min at 20 °C in the dark. […] The reaction was performed in a final volume of 25 μL. Small volumes of the reaction solution were added automatically using Assist-Plus (Integra Bioscience, Zisers, Switzerland). After adding all the assay components, the plates were sealed with a clear cover. The ARM-TAR RNA interaction signal was measured in an EnSight multimode plate reader (PerkinElmer) using the LANCE protocol of the time-resolved fluorescence (TRF) mode in the Kaleido software (PerkinElmer), according to the manufacturer’s protocol. Briefly, the excitation light was directed to the donor (Eu) from the Xenon flash lamp at 320 nm selected by an optical filter, and then, an integration time of 100 μs and a delay time of 70 μs were provided to remove short-lived background signals; subsequently, two emission lights were detected at 615 nm for the donor (Eu) and 665 nm for the acceptor (Cy5). The TRF was measured from the top using an excitation filter and emission monochromators in a single measurement mode. The TR-FRET output signal was expressed as the emission ratio of acceptor/donor (665/615 nm × 1000) fluorescence counts. The fold activity of the TR-FRET signal for ARM-TAR RNA interaction was calculated compared to the control reaction lacking the ARM peptide.

[3] = TZM-bl cells, HIV-1NL4-3 MOI 1, 24 h, 0-12.5 μM
[4] = bl-DTR cells, Dox 50 ng/mL, 24 h, F-Luc, 0-12.5 μM

| Compound | dose response of Tat activity (F-Luc), in words ([1]; 0-12.5 μM, bl-DTR cells) | IC50 (HIV-1NL4-3; [3]) | IC50 [1, 4] | further results |
| --- | --- | --- | --- | --- |
| O=C(O)C1CCCc2sc(C=Cc3cc(Cl)c4c(c3)OCCO4)nc21 (centres unmarked) [Hit 458-F08, 2-(2-(8-Chloro-2,3-dihydrobenzo[b][1,4]dioxin-6-yl)vinyl)-4,5,6,7-tetrahydrobenzo[d]thiazole-4-carboxylic acid] | gradual dose-responsive inhibitory effect on Tat activity | 1.29 ± 0.384 µM |  |  |
| Cc1onc(-c2ccccn2)c1C(=O)Nc1ncc(C2CCNCC2)s1 [Hit 459-G07, 5-Methyl-N-(5-(piperidin-4-yl)thiazol-2-yl)-3-(pyridin-2-yl)isoxazole-4-carboxamide] | gradual dose-responsive inhibitory effect on Tat activity |  | 3.93 ± 0.338 µM |  |
| N=c1n(Cc2ccc(F)cc2F)c2ccccc2n1CC(O)Cn1c(-c2ccc(C(F)(F)F)cc2)noc1=O (centres unmarked) [Hit 460-F06, 4-(3-(3-(2,4-Difluorobenzyl)-2-imino-2,3-dihydro-1H-benzo[d]imidazol-1-yl)-2-hydroxypropyl)-3-(4-(trifluoromethyl)phenyl)-1,2,4-oxadiazol-5(4H)-one] |  |  | 3.2 ± 0.438 µM |  |
| CC(C)C(CNc1nc(-c2ccsc2)nc2ccccc12)N1CCN(C)CC1 (centres unmarked) [Hit 461-H04, N-(3-Methyl-2-(4-methylpiperazin-1-yl)butyl)-2-(thiophen-3-yl)quinazolin-4-amine] | gradual dose-responsive inhibitory effect on Tat activity |  | 10.1 ± 2.73 µM |  |
| Cc1ccc(-c2csc3ncnc(NCCCc4n[nH]c(N)c4C#N)c23)cc1 [Hit 463-B11, 5-Amino-3-(3-(5-p-tolylthieno[2,3-d]pyrimidin-4-ylamino)propyl)-1H-pyrazole-4-carbonitrile] | gradual dose-responsive inhibitory effect on Tat activity | 5.03 ± 0.31 µM | 6.82 ± 1.88 µM |  |
| Cc1nn2c(nc(NC3CCCN(C)C3)c3ccccc32)c1Cl (centres unmarked) [Hit 463-H08, 3-chloro-2-methyl-N-(1-methylpiperidin-3-yl)pyrazolo[1,5-a]quinazolin-5-amine] | gradual inhibition of F-Luc activity |  |  | IC50 ([1]; Human immunodeficiency virus 1, 24 h): 2.37 ± 0.16 µM; IC50 (HIV-1NL4-3; Human immunodeficiency virus 1, TZM-bl, 24 h): 8.05 ± 0.488 µM; SI (selectivity index) (HIV-1NL4-3; TZM-bl cells): >1.552; Kd (TAR RNA): ~1000 µM; dissociation of ARM from TAR RNA, in words (TAR RNA): relatively less dissociation effect; inhibition of viral replication, in words (HIV-1NL4-3 (X4-tropic)): less inhibitory effect on viral replication; inhibition of viral replication, in words (HIV-1AD8 (R5-tropic)): less inhibitory effect on viral replication |
| Cc1ccc(Nc2cc3c(n[n+]([O-])n3CCCN3CCCCC3)c3c2C(=O)c2ccccc2C3=O)cc1 [Hit 464-A09, 6,11-Dioxo-3-(3-(piperidin-1-yl)propyl)-5-(p-tolylamino)-6,11-dihydro-3H-anthra[1,2-d][1,2,3]triazole 2-oxide] | gradual dose-responsive inhibitory effect on Tat activity | 2.03 ± 0.132 µM | 2.27 ± 0.518 µM | inhibitory effect on Tat, in words ([1]; 3.13 μM): strong inhibitory effect; inhibitory effect on HIV-1, in words (HIV-1NL4-3; 3.13 μM): strong inhibitory effect; toxicity, in words (TZM-bl cells; 6.25 μM): sudden severe toxicity; CC50 (TZM-bl cells; concentration that reduces cell viability by 50%): 3.36 ± 0.16 µM |
| GISYGDKKDDQEERA [mt ARM] |  |  |  | TR-FRET signal in peptide/protein competition assay, in words [2]: neither mt ARM nor BSA affected their interaction signals |
